Data from patent publication US10179774B2, “Synthesis of chirally purified substituted benzothiazole diamines” (priority 2007, dated 2019).

Legend:
humans = conditions: cited from earlier work
rodents [1] = tested on: rodents
monkeys = conditions: single oral dose; cited from earlier work
dogs = conditions: single oral dose, 'and above'; cited from earlier work
rodents [2] = conditions: single oral dose, 'and above'; cited from earlier work

Compound: CCCNC1CCc2nc(N)sc2C1 (stereo not shown) [pramipexole]
- initial single dose not tolerated (humans; human subjects, initial single dose): greater than 0.20 mg
- dose shown to cause somnolence (humans; humans, 'as low as'): 1.5 mg
- equivalent human dose of the rodent lethal dose (rodents [1]; human equivalent of 70-105 mg/kg in rodents): 7 to 12 mg/kg
- equivalent human dose of the rodent lethal dose for a 70 kg individual (rodents [1]; rodents, in vivo): 500 to 850 mg
- dose at which major excitation was displayed (monkeys): 3.5 mg/kg
- dose at which vomiting occurred (dogs): ≥ 0.0007 mg/kg
- doses at which death occurred (rodents [2]): 70 to 105 mg/kg
